# How the values were obtained:
# Assay type in all cases: in vivo, Sprague-Dawley rats
# rat offspring [1] = assay: Micro-CT trabecular architecture and bone length of rat offspring after maternal diet supplementation
# Method: Fifty 10-week-old pregnant Sprague-Dawley rats at the eleventh day of gestation (Charles Rivers Laboratories, Orleans Cedex, France) are housed under standardized environmental conditions (22° C., relative humidity of 50%, artificial lighting on for 12 hours/day) and are given free access to deionized water during the test period. The rats are randomly divided into five groups of feeding (n=10/group): (1) Control Group (“Control”), who receives a standard purified rodent diet (SPRD); […] (3) Prebiotic group (“Prebiotic”), who receives the SPRD containing 7.5% of the total carbohydrate as inulin-type fructans (Synergy-1®, Orafti, Belgium); […] During their suckling period, the pups receive only the dam's milk. […] Sacrifices of rat pups are carried out at birth, weaning and at the end of the adolescence period. The whole bone mineral density (BMD) and bone mineral content (BMC) of the skeleton are measured at birth and at weaning by using a pDEXA densitometer (Norland Corp., Fort Atkinson, Wis., USA). In adolescent offspring, the determination of BMC and BMD are analyzed in isolated bones (femur, tibia and vertebrae). Determination of the trabecular architecture parameters (trabecular thickness, separation and number), bone length and bone volume fraction (BV/TV) is analyzed by Micro-computed tomography (micro-CT). Micro-CT analysis is carried out by the Bone & Joint Research Group (University of Southampton, UK) and cortical parameters are performed by SCANCO Medical AG (Brüttisellen, Switzerland). Micro-computed tomography (micro-CT) is a technique for the nondestructive assessment and analysis of the three-dimensional trabecular and cortical bone structural properties. Scanning with micro-CT can be achieved at resolutions as low as 5 μm, allowing for the determination of porosities and subtle modeling and remodeling events of the bone tissue. Furthermore, true three-dimensional image reconstructions permit the assessment of bone microarchitecture as a three dimensional structure, providing critical information to images collected through histomorphometry. In the present Example, femoral, tibia and vertebra cancellous bones are assessed using Metris (XTek) Benchtop 160Xi CT scanner (University of Southampton) and vertebra cortical bone is assessed using MicroCT-40 computed tomography system (Scanco Medical, Basserdorf, Switzerland). […] Results are expressed as mean±SEM, and the probability level at which the differences are considered significant is set at p<0.05. One-way ANOVA is used to evaluate differences attributable to the diet in the different markers, previously testing the homogeneity of variances by Levene's. A posteriori post hoc tests are carried out by the Dunnet test.
# rat offspring [2] = assay: Micro-CT vertebra cortical architecture of rat offspring after maternal diet supplementation; details: adolescence
# Method: Fifty 10-week-old pregnant Sprague-Dawley rats at the eleventh day of gestation (Charles Rivers Laboratories, Orleans Cedex, France) are housed under standardized environmental conditions (22° C., relative humidity of 50%, artificial lighting on for 12 hours/day) and are given free access to deionized water during the test period. The rats are randomly divided into five groups of feeding (n=10/group): (1) Control Group (“Control”), who receives a standard purified rodent diet (SPRD); […] (3) Prebiotic group (“Prebiotic”), who receives the SPRD containing 7.5% of the total carbohydrate as inulin-type fructans (Synergy-1®, Orafti, Belgium); […] During their suckling period, the pups receive only the dam's milk. […] Sacrifices of rat pups are carried out at birth, weaning and at the end of the adolescence period. The whole bone mineral density (BMD) and bone mineral content (BMC) of the skeleton are measured at birth and at weaning by using a pDEXA densitometer (Norland Corp., Fort Atkinson, Wis., USA). In adolescent offspring, the determination of BMC and BMD are analyzed in isolated bones (femur, tibia and vertebrae). Determination of the trabecular architecture parameters (trabecular thickness, separation and number), bone length and bone volume fraction (BV/TV) is analyzed by Micro-computed tomography (micro-CT). Micro-CT analysis is carried out by the Bone & Joint Research Group (University of Southampton, UK) and cortical parameters are performed by SCANCO Medical AG (Brüttisellen, Switzerland). In the present Example, femoral, tibia and vertebra cancellous bones are assessed using Metris (XTek) Benchtop 160Xi CT scanner (University of Southampton) and vertebra cortical bone is assessed using MicroCT-40 computed tomography system (Scanco Medical, Basserdorf, Switzerland). […] Micro-CT analysis also allows for the determination of various quality properties of the cortical bone. The bone fragility is influenced not only by the architecture but also by the tissue “quality”. The strength of a bone as an organ depends on the material properties of bone as a tissue. Stiffness, or the resistance of the whole bone to deformation by a load, is a key material property and requires a destructive mechanical technique if measurements are done in vivo. The non-destructive analysis of the volumetric bone mineral density of cortical bone (cortical vBMD) by micro CT has an approximately linear relationship with the stiffness of the cortical bone. Cortical thickness (C.Th) is one of the variables that helps to evaluate the modeling-derived changes provoked by growth. The cortical porosity (C.Sp) reflects the intracortical remodeling in the bone. […] Results are expressed as mean±SEM, and the probability level at which the differences are considered significant is set at p<0.05. […]
# rat offspring [3] = assay: pDEXA bone mineral density (BMD) and bone mineral content (BMC) of rat offspring after maternal diet supplementation; details: for lumbar vertebra BMC with respect to Control group / lumbar vertebra BMD with respect to Control group: adolescence
# Method: Fifty 10-week-old pregnant Sprague-Dawley rats at the eleventh day of gestation (Charles Rivers Laboratories, Orleans Cedex, France) are housed under standardized environmental conditions (22° C., relative humidity of 50%, artificial lighting on for 12 hours/day) and are given free access to deionized water during the test period. The rats are randomly divided into five groups of feeding (n=10/group): (1) Control Group (“Control”), who receives a standard purified rodent diet (SPRD); […] (3) Prebiotic group (“Prebiotic”), who receives the SPRD containing 7.5% of the total carbohydrate as inulin-type fructans (Synergy-1®, Orafti, Belgium); […] During their suckling period, the pups receive only the dam's milk. […] Sacrifices of rat pups are carried out at birth, weaning and at the end of the adolescence period. The whole bone mineral density (BMD) and bone mineral content (BMC) of the skeleton are measured at birth and at weaning by using a pDEXA densitometer (Norland Corp., Fort Atkinson, Wis., USA). In adolescent offspring, the determination of BMC and BMD are analyzed in isolated bones (femur, tibia and vertebrae). Determination of the trabecular architecture parameters (trabecular thickness, separation and number), bone length and bone volume fraction (BV/TV) is analyzed by Micro-computed tomography (micro-CT). Micro-CT analysis is carried out by the Bone & Joint Research Group (University of Southampton, UK) and cortical parameters are performed by SCANCO Medical AG (Brüttisellen, Switzerland). DEXA scan is a technique used in the clinical practice for the analysis of bone health. Two main bone properties can be measured by this technique: Bone Mineral Content (BMC) and areal Bone Mineral Density (BMD). BMC determines the mass of mineral present in the whole body or in the selected skeletal region. BMC changes reflect the result of the metabolic “mass” balance between bone formation and bone destruction. BMC represented relative to the projected bone area refers to BMD. […] The manufacturer's software for research in small animals calculates BMC and BMD for the isolated bone. Femur is measured from the femoral neck to the knee joint. Tibia is measured from the knee joint to the joint between tibia and calcaneus, also including fibula. […] Results are expressed as mean±SEM, and the probability level at which the differences are considered significant is set at p<0.05. One-way ANOVA is used to evaluate differences attributable to the diet in the different markers, previously testing the homogeneity of variances by Levene's. A posteriori post hoc tests are carried out by the Dunnet test.
# [4] = at delivery, appendicular bones
Compound,"vertebra structural parameters (BV/TV, trabecular thickness) (rat offspring [1]; adolescence)",vertebra cortical features (rat offspring [2]),lumbar vertebra BMC with respect to Control group (rat offspring [3]),lumbar vertebra BMD with respect to Control group (rat offspring [3]),whole body BMC relative to Control group (rat offspring [3]; at weaning),vertebra BV/TV enhanced in comparison with Control group (rat offspring [1]; adolescence),vertebra trabecular separation respective to Control group (rat offspring [1]; adolescence),vertebra trabecular thickness enhanced in comparison with Control group (rat offspring [1]; adolescence),trabecular number of femur and tibia vs Control group (rat offspring [1]; [4]),trabecular thickness of femur and tibia vs Control group (rat offspring [1]; [4]),"femur length represented versus body weight (rat offspring [1]; at delivery, no difference to Control group)","trabecular separation of femur and tibia vs Control group (rat offspring [1]; at delivery, statistical differences not achieved)",increase in vertebra trabecular thickness respective to Control group (rat offspring [1]; at weaning),vertebra BV/TV ratio respective to Control group (rat offspring [1]; at weaning),vertebra trabecular separation respective to Control group (rat offspring [1]; at weaning),vertebra cortical porosity (rat offspring [2]),vertebra cortical vBMD (rat offspring [2]),vertebrae cortical thickness (rat offspring [2])
Vitamin D,No effect,does not show any improvement,no differences,no differences,lower,–,–,–,–,–,–,–,–,–,–,–,–,–
"O=C([O-])[O-].[Ca+2] [Calcium, calcium carbonate]",–,–,no differences,no differences,–,22%,significant decrease,17%,greater,lower,0.572±0.04,decrease,~30%,statistically different,statistically different,decrease,increase,without significantly affecting

# From patent US20120245121A1, “METHODS FOR IMPROVING BONE HEALTH IN INFANTS USING LONG CHAIN POLYUNSATURATED FATTY ACIDS” (ABBOTT LABORATORIES, priority 2011, published 2012)
